From patent US11319289B2, “5-hydroxy pyridine-based compound for use as P2X1 and P2X3 receptor antagonist and pharmaceutical composition comprising same” (GWANGJU INSTITUTE OF SCIENCE AND TECHNOLOGY, priority 2017, dated 2022)

Legend:
[1] = target: T1, CYP2C9 (Homo sapiens, UniProt P11712); experiment: CYP inhibition assay (Vivid fluorometric), 2C9; type: biochemical; details: human, recombinant human CYP2C9, pH 8; 1 μM in Table 5; read-out: CYP450 inhibition, 2C9 isozyme
T1 construct: purchased Invitrogen
T1 sequence (P11712 whole entry): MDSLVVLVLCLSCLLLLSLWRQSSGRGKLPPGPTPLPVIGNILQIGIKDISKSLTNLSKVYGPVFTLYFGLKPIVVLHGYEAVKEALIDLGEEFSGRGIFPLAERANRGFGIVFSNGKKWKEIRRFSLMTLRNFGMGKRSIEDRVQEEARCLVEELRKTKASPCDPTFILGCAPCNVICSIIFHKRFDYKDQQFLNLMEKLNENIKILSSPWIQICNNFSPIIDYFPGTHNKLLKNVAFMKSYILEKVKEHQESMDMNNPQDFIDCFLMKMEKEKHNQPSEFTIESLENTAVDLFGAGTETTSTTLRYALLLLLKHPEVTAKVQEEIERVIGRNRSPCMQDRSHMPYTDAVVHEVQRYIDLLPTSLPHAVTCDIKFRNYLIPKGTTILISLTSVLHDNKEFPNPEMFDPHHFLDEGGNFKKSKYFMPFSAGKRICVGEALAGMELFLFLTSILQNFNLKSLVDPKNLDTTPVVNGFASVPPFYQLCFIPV
Method: CYP450 (1A2, 2C9, 3A4) enzyme assay was performed by a fluorometric assay using a Vivid® CYP450 screening kit (Invitrogen, USA, CA) in a 96-well black plate according to manufacturer's instructions with some modifications. The assay was performed at room temperature, and the final assay volume was 100 μL. […]
A master pre-mixture (enzyme (0.5 nmol recombinant human CYP450 enzyme)/NADP regeneration solution (333 mM glucose-6-phosphate dissolved, 30 U/mL glucose-6-phosphate dehydrogenase in 100 mM KH2PO4 solution at pH 8.0)) was prepared as a CYP450 reaction buffer (200 mM KH2PO4, pH 8.0). The master pre-mixture was added to each well of the 96 well plate, followed by the vehicle DMSO (control) and test compounds, and the mixture was preincubated for 10 minutes in the plate for background reading. Subsequently, the enzyme reaction was immediately initiated through the addition of CYP450 substrate/NADP^+ mixture. After incubation for 40 minutes, the fluorescence of the product was measured with a CHAMELEON™ multi-technology plate reader (2C9, 3A4: excitation wavelength of 530 nm and emission wavelength of 590 nm, 1A2: excitation wavelength of 415 nm and emission wavelength of 460 nm). The effect of the test compounds on CYP450 (1A2, 2C9, 3A4) was expressed as the percentage of enzyme activity.

[2] = test system: SNL rats (mechanical allodynia); experiment: Antiallodynic effect (von Frey) in spinal nerve ligation (SNL) rats; type: in vivo, rat
Method: 3-1. Evaluation of In Vivo Efficacy
The antiallodynic effects (mechanical allodynia) were evaluated using rats according to a previously reported protocol. In order to evaluate the withdrawal threshold, rats (naive, SNL and CIPN) were placed on a plastic mesh floor of individual plastic cages. The rats were allowed to acclimate to the environment for 30 minutes and examined after intrathecal or intravenous administration to the caudal vein. The control group received the same volume of vehicle (intrathecal administration of saline or DMSO, intravenous administration of DMSO:PEG:PBS=1:6:3 v/v %) as the experimental groups. Evaluation of the mechanical withdrawal threshold was measured in responses to the application of calibrated von Frey filaments (Stoelting, Wood Dale, Ill., USA) to the hind paw of the rats through the holes on the mesh floor underneath the cage using the ‘up and down method’. A series of eight von Frey filaments (0.4, 0.7, 1.2, 2.0, 3.6, 5.5, 8.5, and 15 g) was applied perpendicular to the sole of the hind paw for 5 seconds while the head was bent. Active withdrawal or flinching of the paw was considered as a positive reaction. The absence of response in the rats, when a pressure was applied to 15 g von Frey filament, was used as a cut-off value. Only rats with definite allodynia (i.e., mechanical withdrawal threshold: less than 4 g after SNL or less than 5 g after CIPN) were tested. The rats after termination of the experiments were euthanized through an overdose of sevoflurane. The withdrawal threshold data for the von Frey filament test was calculated as % MPE (maximum possible effect) based on the following Calculation Equation: % MPE=[(Post-drug threshold−Post-injured baseline threshold)/(Cutoff threshold−post-injured baseline threshold)×100]. Dose-response data were analyzed using Scheffe's post hoc test and one-way analysis of variance (ANOVA).

[3] = Plasma protein binding by rapid equilibrium dialysis, rat; type: in vitro ADME; details: plasma (50% in PBS), pH 7.4, read-out: Plasma protein binding rate, Rat (converted)
Method: Plasma protein binding was measured by rapid equilibrium dialysis (RED). A DMSO stock solution of the compounds was prepared at a concentration of 10 mM and diluted to a concentration of […] with 50% plasma in phosphate buffered saline (PBS, pH 7.4). Plasma samples (100 μL) and PBS (300 μL) were added to the sample chamber and the buffer chamber, respectively, after which the RED device was turn on and the samples were incubated in a shaking incubator at 37° C. for 4 hours. After dialysis, 50 μl aliquots were collected from each side of the chamber. 50 μl of blank plasma was added to the buffer sample, and 50 μl of PBS was also added to the plasma sample. 200 μL of acetonitrile containing an internal standard was added to each sample. The samples were centrifuged at 3200 g for 20 minutes at 4° C., and the supernatants were obtained and analyzed by an LC-MS/MS system. The plasma protein binding rate was calculated as follows: Free form (%)=(Buffer chamber/Plasma chamber)×100 Bound form (%)=100−Free form (%).

[4] = Metabolic stability in microsomes, rat; type: in vitro ADME; details: for Metabolic stability, microsomes, Rat: 30 min
Method: Metabolic stability of the compounds was evaluated in rat liver microsomes (RLM). Microsomes (0.5 mg/ml) and test compound (1 μM) in 100 mM potassium phosphate buffer (pH 7.4) were preincubated by shaking at 37° C. for 5 min (100 rpm). Metabolic reactions were initiated by adding an NADPH production system (60 mM potassium phosphate buffer at pH 7.4, 1.3 mM NADP, 3.3 mM glucose-6-phosphate, 0.3 μL glucose-6-phosphate dehydrogenase (0.4 U/mL), and 3.3 mM magnesium chloride) and incubating at 37° C. 100 μL aliquots were recovered at 0, 10, 20, 30 and 60 minutes, and the reaction was terminated by the addition of two volumes of ice-cold acetonitrile (ACN). After mixing by vortex and centrifugation (14000 rpm) for 15 minutes at 4° C., the supernatant was transferred to liquid chromatography vials and analyzed by an LC-MS/MS system.

Row | inhibition at 40 min, 1 µM [1] | fraction unbound at 4 h, 5 µM [3] | Metabolic stability, microsomes, Rat [4] | metabolic stability ([4]; after 30 minutes, species not given) | SMILES | ED50 ([2]; Rattus norvegicus, antiallodynic effect, intravenous administration) | antiallodynic efficacy, MPE % ([2]; 1 μg, intrathecal administration) | paw withdrawal threshold ([2]; intrathecal administration, von Frey)
1 | 28 ± 3% | 0.675 | 33 % remaining after 30 min | – | CCCc1nc(Cc2cccc(Oc3ccccc3)c2)c(C)c(C(=O)OC)c1O [Compound 28, Methyl 3-hydroxy-5-methyl-6-(3-phenoxybenzyl)-2-propylisonicotinate] | 2.62 mg/kg | – | –
2 | 26 ± 2% | 0.002 | 0 % remaining after 30 min | < 5% | CCCc1nc(Cc2cccc(Oc3ccccc3)c2)c(C)c(C(=O)O)c1O [Compound 29, 3-Hydroxy-5-methyl-6-(3-phenoxybenzyl)-2-propylisonicotinic acid] | – | 58±19% | increase in paw withdrawal threshold
